Measured values published in publication PMC10254366, “The Structure of Maltooctaose-Bound Escherichia coli Branching Enzyme Suggests a Mechanism for Donor Chain Specificity” (Molecules, 2023).

Biological target: T1, EcBE (E. coli branching enzyme) (Escherichia coli, UniProt P07762)
T1 construct: gene glgB; N-domain removed (first 113 amino acids of full-length EcBE); CBM48, catalytic and C-terminal domains kept; overexpressed in E. coli; four molecules per asymmetric unit
T1 sequence (P07762 114-728): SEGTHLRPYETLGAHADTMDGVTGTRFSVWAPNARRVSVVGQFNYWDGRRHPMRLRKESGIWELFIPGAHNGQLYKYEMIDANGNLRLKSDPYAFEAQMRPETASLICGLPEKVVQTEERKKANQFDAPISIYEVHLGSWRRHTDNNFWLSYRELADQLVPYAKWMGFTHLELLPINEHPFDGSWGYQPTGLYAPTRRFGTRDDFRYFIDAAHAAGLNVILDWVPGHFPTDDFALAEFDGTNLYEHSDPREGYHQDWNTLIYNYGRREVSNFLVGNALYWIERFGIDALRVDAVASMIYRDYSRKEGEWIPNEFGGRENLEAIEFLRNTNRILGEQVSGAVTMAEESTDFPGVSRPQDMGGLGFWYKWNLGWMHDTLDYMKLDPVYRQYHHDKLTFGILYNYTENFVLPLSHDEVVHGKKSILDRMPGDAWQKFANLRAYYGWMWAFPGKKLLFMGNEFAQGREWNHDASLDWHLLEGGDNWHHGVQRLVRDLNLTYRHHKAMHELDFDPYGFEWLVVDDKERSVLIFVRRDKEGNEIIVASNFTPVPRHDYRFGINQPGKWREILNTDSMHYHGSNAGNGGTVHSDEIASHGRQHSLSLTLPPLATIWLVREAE
Experiment: X-ray crystallography, crystal soak, […] Å
Assay type: binding
Settings: crystals soaked in 150 mM maltooctaose 5.5 h, 1.3 M ammonium tartrate pH 7.6, 10% PEG 4000; surface sites I-V and VIII-XII, not active site

SMILES: OC[C@H]1O[C@H](O[C@H]2[C@H](O)[C@@H](O)[C@@H](O[C@H]3[C@H](O)[C@@H](O)[C@@H](O[C@H]4[C@H](O)[C@@H](O)[C@@H](O[C@H]5[C@H](O)[C@@H](O)[C@@H](O[C@H]6[C@H](O)[C@@H](O)[C@@H](O[C@H]7[C@H](O)[C@@H](O)[C@@H](O[C@H]8[C@H](O)[C@@H](O)C(O)O[C@@H]8CO)O[C@@H]7CO)O[C@@H]6CO)O[C@@H]5CO)O[C@@H]4CO)O[C@@H]3CO)O[C@@H]2CO)[C@H](O)[C@@H](O)[C@@H]1O (stereo partly shown) [M8, maltooctaose]
- X-ray crystallography, crystal soak, 3.0 Å: we report the crystal structure of the maltooctaose-bound branching enzyme from the enterobacteria E. coli
